Results as given in patent publication US20200147039A1, “COMPOUNDS USEFUL IN INHIBITING HUMAN TREFOIL FACTOR 3” (NATIONAL UNIVERSITY OF SINGAPORE, priority 2017, published 2020).

These molecules were tested on MCF-7 (assay: AlamarBlue cell viability assay, MCF7). Conditions: Homo sapiens, MCF7, MCF-7, AlamarBlue cell viability (Table 8).
Assay type: cell-based, human
Description: (A) Inhibitory concentration 50% (IC50) values for compound 43 in the MC cell lines are tabulated, using an AlamarBlue™ cell viability assay as previously described in Pandey V et al., Breast Cancer Res. 2014; 16(5):429. (B) Measured dose-dependent manner effect of compound 43 on the viability of MC cells (left-side, TFF3-high and right, TFF3-low) using AlamarBlue™ viability assay as previously described (ibid). (C) Apoptotic cell death of mammary carcinoma cell lines measured after treatment with 10 μM compound 43 using flow cytometry analysis at 24 hour as described previously in Keerthy H K et al., PloS one. 2014; 9(9):e107118. Annexin V-FITC staining is indicated on the X-axis and PI staining on the Y-axis. […] Acquisition of Annexin V and PI data were represented as percentage (%) in each quadrant. Note: CM, conditioned media; MCF10A and MCF12A, non-transformed immortalized-mammary epithelial cell line. Points are mean of triplicate experiments; bars, ±SD. Statistical significance was assessed by using an unpaired two-tailed Student's t test (P<0.05 was considered as significant) using GraphPad Prism5. Columns are mean of triplicate experiments; bars, ±SD. **P<0.001, *P<0.05.
The human immortalized mammary epithelial cell lines, MCF10A, and MCF12A; and immortalized hepatocellular epithelial cell line, LO2 were obtained from the American Type Culture Collection (ATCC, Rockville, Md.) and were cultured as per ATCC propagation instructions. MC cell lines, MCF7, T47D, BT474, BT20, MDA-MB-361, MDA-MB-436, MDA-MB-468, and MDA-MB-231; endometrial carcinoma cell lines, Ishikawa, ECC1, RL95-2 and AN3; hepatocellular carcinoma cell lines, Hep3B, H2P, and H2M; colon carcinoma cell lines, DLD-1, and Caco-2; and prostate carcinoma cell lines, PC3, LNCaP, and DU145 were obtained from the American Type Culture Collection (ATCC, Rockville, Md.). Pancreatic carcinoma cell lines, AsPC-1 and BxPC-3; Lung carcinoma cell lines, HCC-827, NCI-H1975, HCC-4006, PC-14, and NCI-H1299; and Thyroid carcinoma cell lines HTH83, CAL62, T238, and OGK-M were obtained from Prof. H. Phillip Koeffler's laboratory at The Cancer Science Institute of Singapore, National University of Singapore (NUS). Gastric carcinoma cell lines, AGS, MKN-28, MKN-45, and A2-528 were obtained from Prof. Yoshiaki Ito's laboratory at The Cancer Science Institute of Singapore, NUS. All cell lines were cultured as per ATCC propagation instructions.
The above synthesised compounds were initially evaluated against a range of carcinoma cells using an AlamarBlue™ cell viability assay (using the protocol discussed above). The tested compounds were generally efficacious at reducing the viability of various carcinoma cells compared to vehicle (DMSO) treated cells. Table 8 provides selected IC50 data for certain of the compounds synthesised herein against MCF-7.
In table 9 IC50 values of compound 43 compound library in several cancer cell lines are tabulated, using an AlamarBlue® cell viability assay as previously described in Pandey V et al., Breast Cancer Res. 2014; 16(5):429. Statistical analysis was assessed by using GraphPad Prism5. Note: NV, no value.
For `COc1ccc(C2C(C#N)=C(NC(=O)c3ccc(C(F)(F)F)cc3)Oc3c2c(=O)oc2ccccc32)cc1-c1cnc(F)c(C)c1` (stereo not shown) [Compound 102], the IC50 was 33 µM. `N#CC1=C(N)Oc2c(c(=O)oc3ccccc23)C1c1ccc(-c2ccncc2)cc1` (stereo not shown) [Compound 121] gave an IC50 of 15.8 µM. `N#CC1=C(N)Oc2c(c(=O)oc3ccccc23)C1c1ccc(-c2ccc(C=O)o2)cc1F` (stereo not shown) [Compound 136] gave an IC50 of 1.67 µM. `Cc1cc(-c2ccc(C3C(C#N)=C(N)Oc4c3c(=O)oc3ccccc43)cc2)cnc1Cl` (stereo not shown) [Compound 122] showed an IC50 of 73.9 µM. With `N#CC1=C(N)Oc2c(c(=O)oc3ccccc23)C1c1ccc(-c2ccc(Cl)cc2)cc1F` (stereo not shown) [Compound 137] the IC50 was 3.95 µM. With `Cc1cc(-c2ccc(C3C(C#N)=C(NC(=O)c4cccn4C)Oc4c3c(=O)oc3ccccc43)cc2)cnc1F` (stereo not shown) [Compound 101] the IC50 was 40.4 µM. `COc1cccc(-c2cc(C3C(C#N)=C(N)Oc4c3c(=O)oc3ccccc43)ccc2OC)c1` (stereo not shown) [Compound 61] gave an IC50 of 8.94 µM. For `N#CC1=C(N)Oc2c(c(=O)oc3ccc(F)cc23)C1c1ccc(-c2cncnc2)cc1F` (stereo not shown) [Compound 168], the IC50 was 251 µM. Molecule `COc1ccc2c3c(c(=O)oc2c1)C(c1ccc(-c2cccnc2)cc1)C(C#N)=C(N)O3` (stereo not shown) [Compound 143] has an IC50 of 0.685 µM. `COc1ccc(C2C(c3nnn[nH]3)=C(N)Oc3c2c(=O)oc2ccccc32)cc1-c1cnc(F)c(C)c1` (stereo not shown) [Compound 114] gave an IC50 of 39.8 µM. `COc1cccc(-c2ccc(C3C(C#N)=C(N)Oc4c3c(=O)oc3ccccc43)cc2)c1` (stereo not shown) [Compound 13] gave an IC50 of 17.8 µM. With `N#CC1=C(N)Oc2c(c(=O)oc3ccccc23)C1c1ccc(-c2ccccc2)cc1` (stereo not shown) [Compound 1] the IC50 was 22.6 µM. `CC(=O)c1ccc(-c2ccc(C3C(C#N)=C(N)Oc4c3c(=O)oc3ccc(F)cc43)cc2)s1` (stereo not shown) [Compound 158] gave an IC50 of 95.2 µM.
